We go through one molecule from ChEMBL document CHEMBL4680227, “Design and synthesis of selective degraders of EGFR mutant” (Eur J Med Chem, 2020).

The term DC50 denotes the concentration giving 50% degradation. Low values mean a more potent degrader, high ones a less potent degrader.

Test [1] concerns the target Epidermal growth factor receptor (Homo sapiens, UniProt P00533). As to the kind of experiment: Induction of EGFR degradation in human A431 cells by Western blot analysis. The note with it: a-431.
For test [2], the target named is Epidermal growth factor receptor (Homo sapiens, UniProt P00533, T790M/L858R). As to the kind of experiment: Induction of EGFR L858R/T790M mutant degradation in human NCI-H1975 cells by Western blot analysis. A general note: Immunoblotting shows a protein as a band on a membrane.
Sequence of Epidermal growth factor receptor (Homo sapiens, UniProt P00533, T790M/L858R) (P00533 25-1210 T790M/L858R limits assumed): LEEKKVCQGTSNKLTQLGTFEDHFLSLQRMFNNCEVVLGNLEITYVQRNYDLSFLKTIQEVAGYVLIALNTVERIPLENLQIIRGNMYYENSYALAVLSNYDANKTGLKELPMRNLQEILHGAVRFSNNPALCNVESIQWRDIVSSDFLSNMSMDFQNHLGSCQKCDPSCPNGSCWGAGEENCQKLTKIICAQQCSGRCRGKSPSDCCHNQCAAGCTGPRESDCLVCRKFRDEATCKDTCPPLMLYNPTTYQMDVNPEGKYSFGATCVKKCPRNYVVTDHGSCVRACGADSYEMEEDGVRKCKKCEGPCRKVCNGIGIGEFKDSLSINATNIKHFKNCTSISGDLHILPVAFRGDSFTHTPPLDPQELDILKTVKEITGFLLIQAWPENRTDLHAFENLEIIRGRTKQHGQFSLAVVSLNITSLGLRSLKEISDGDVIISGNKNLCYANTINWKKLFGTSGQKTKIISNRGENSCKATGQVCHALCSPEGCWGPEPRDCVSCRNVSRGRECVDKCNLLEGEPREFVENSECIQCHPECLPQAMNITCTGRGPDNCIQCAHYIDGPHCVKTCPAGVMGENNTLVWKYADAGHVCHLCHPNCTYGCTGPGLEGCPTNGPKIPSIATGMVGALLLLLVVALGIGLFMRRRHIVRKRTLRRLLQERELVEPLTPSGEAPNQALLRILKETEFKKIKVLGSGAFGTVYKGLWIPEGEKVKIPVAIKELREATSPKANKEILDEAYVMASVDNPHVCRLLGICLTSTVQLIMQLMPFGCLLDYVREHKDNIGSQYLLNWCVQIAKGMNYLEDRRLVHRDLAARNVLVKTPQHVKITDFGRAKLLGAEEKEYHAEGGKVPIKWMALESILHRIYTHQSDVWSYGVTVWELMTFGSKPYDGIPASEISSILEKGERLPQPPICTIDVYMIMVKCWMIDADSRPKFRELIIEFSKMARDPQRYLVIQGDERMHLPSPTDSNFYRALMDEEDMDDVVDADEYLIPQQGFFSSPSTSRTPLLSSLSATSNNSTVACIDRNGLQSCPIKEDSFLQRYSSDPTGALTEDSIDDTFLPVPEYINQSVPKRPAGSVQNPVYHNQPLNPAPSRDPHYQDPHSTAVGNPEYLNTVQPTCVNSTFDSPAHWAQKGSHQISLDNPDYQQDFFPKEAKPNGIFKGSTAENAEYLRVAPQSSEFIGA

Sequence of Epidermal growth factor receptor (Homo sapiens, UniProt P00533) (P00533 whole entry): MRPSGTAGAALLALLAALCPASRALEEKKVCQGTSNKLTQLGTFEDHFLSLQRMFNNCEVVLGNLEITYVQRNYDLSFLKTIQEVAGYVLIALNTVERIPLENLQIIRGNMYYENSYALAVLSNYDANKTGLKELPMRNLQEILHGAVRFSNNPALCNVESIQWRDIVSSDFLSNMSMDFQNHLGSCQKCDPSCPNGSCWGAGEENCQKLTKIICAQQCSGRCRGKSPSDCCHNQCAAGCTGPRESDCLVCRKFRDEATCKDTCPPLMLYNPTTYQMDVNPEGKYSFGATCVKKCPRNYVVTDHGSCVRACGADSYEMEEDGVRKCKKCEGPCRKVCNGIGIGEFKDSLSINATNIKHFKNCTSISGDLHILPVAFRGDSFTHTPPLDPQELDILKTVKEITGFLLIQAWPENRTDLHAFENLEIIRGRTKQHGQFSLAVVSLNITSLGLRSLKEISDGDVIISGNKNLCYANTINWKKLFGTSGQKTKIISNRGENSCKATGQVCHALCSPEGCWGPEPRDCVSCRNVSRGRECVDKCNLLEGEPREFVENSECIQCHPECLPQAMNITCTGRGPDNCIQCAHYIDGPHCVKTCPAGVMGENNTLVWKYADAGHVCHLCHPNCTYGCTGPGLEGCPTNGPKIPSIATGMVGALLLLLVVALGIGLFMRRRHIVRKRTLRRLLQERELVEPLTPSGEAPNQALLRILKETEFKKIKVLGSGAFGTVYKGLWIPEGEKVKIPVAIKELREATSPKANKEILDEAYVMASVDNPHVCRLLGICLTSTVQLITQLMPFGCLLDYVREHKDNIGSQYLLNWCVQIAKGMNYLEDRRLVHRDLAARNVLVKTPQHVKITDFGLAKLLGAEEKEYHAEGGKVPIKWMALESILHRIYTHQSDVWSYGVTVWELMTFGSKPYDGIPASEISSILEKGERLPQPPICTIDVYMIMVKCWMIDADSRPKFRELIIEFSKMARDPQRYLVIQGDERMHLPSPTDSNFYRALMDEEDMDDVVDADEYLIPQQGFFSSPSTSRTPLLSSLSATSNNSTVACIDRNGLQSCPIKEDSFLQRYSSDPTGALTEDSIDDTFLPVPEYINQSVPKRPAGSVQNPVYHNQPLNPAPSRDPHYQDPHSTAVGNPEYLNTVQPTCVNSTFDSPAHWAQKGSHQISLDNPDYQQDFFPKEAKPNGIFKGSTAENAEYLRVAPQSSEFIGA

For `C=CC(=O)Nc1cccc(-n2c(=O)cc(C)c3cnc(Nc4ccc(N5CCN(C)CC5)cc4OC)nc32)c1`, the DC50 in test [1] and in test [2] was over 2 µM throughout.
